Data set [1] concerns pseudofolliculitis barbae (PFB). The data set can be described thus: 10-week double blind, placebo-controlled, cross-over clinical trial in PFB. In kind it is in vivo, human. The settings on record: 15% in 60% alcohol, 1% ULTREZ 10, 24% water; PFB subjects. The text has this: PFB efficacy is examined by a 10-week double blind, placebo-controlled, cross-over clinical trial. […] Papules, pustules, and ingrown hairs as defined below are counted and recorded. The primary objectives of this study are: • To determine the efficacy of various NSAID compositions applied at various intervals ranging from every other day to twice per day for five weeks in reducing the signs and symptoms of PFB; and • To determine the safety and tolerability of the various NSAID compositions. Papules, pustules, and ingrown hairs as defined below are counted and recorded. Lesions are counted on the neck, lower left and right cheeks, and jaw line (beard area). The same qualified physician completes the assessment at each visit. Each assessment is performed independent of previous assessments. Subjects have a total of at least 10 (for moderate) of 2 (for mild) follicular papules, pustules, or ingrown hairs at the Baseline Visit to be admitted to the study. Inflammatory and/or nodulocystic lesions, erythema, and hyperpigmentation are assessed according to the following six-point Likert (categorical) scale: • 0 None: […] Rare noninflammatory lesions present (lesions must be resolving and may be hyperpigmented, though not pink/red). Barely perceptible elevation (discernable by touch only). • 2 Mild: Noninflammatory lesions predominate, with few inflammatory papules/pustules. Light red color. Visible but mild elevation. No nodulocystic lesions. • 3 Moderate: Some noninflammatory lesions are present with multiple inflammatory lesions evident. Definite lesion redness and elevation. There may or may not be one small nodulocystic lesion. • 4 Severe: Highly inflammatory lesions predominate. Deep intense red color. Marked dermal swelling and in duration in widespread areas. There may or may not be a few nodulocystic lesions. • 5 Very Severe: Many nodulocystic lesions. Results are recorded in the source document and on the appropriate CRF. The same qualified physician will complete the assessment at each visit. Each assessment should be performed independent of previous assessments. Subjects must have a rating of at least moderate (3) at the Baseline Visit to be admitted to the study. All subjects are asked to evaluate specific PFB symptoms of itch, pain, and shaving discomfort, as well as the overall condition of their PFB at the Baseline, and weekly thereafter (“Subject's Assessment of Symptoms”). […] Global Assessment of Improvement. Subjects are asked to compare the overall condition of their PFB at the week 2, 4, and 6 visits with the overall condition before treatment using the following five-point Likert (categorical) scale: • 2 Overall condition and shaving comfort much better than before treatment. • 1 Overall condition and shaving comfort slightly better than before treatment. • 0 Overall condition and shaving comfort unchanged, same as before treatment. • −1 Overall condition and shaving comfort slightly worse than before treatment. • […] than before treatment. Each assessment is performed independent of previous assessments. The prodrug compositions are tested on PFB subjects according to Example 22 including pharmacokinetic analysis.

In data set [2] the test system is skin of minipigs. The data set can be described thus: C14-labeled compositions applied to skin of minipigs, punch biopsies and serum samples. The settings on record: 15% in 60% alcohol, 1% ULTREZ 10, 24% water; for Diffusion Rate (1 = high, 5 = low): 0.2 gm per cm^2 skin, biopsies 30 seconds to 24 hours; for Systemic Levels (1 = high, 5 = low): serum samples.
Data set [3] has as its system skin of minipigs. As to conditions: minipig, in vivo.
A short description of data set [4]: Prodrug (ibuprofen ethyl ester) generation upon storage, HPLC. In kind it is physicochemical. The settings on record: compositions similar to 1a, presence or absence of salicylic acid. As for the experimental part:
It has been discovered that, in one embodiment, compositions of the present invention, upon storage, result in the generation of a prodrug form of the active ingredient. Such prodrug formation results from reaction of a carboxylic acid group of the active drug with the alcoholic solvent to form an ester linkage.
HPLC analysis was performed on composition la stored for 3 months at 25° C. A new peak (i.e., the prodrug) distinct from the ibuprofen peak was detected within the chromatographic profile.
Next, two grams of composition 1a were diluted in twenty-five milliliters of 50:50) water:acetonitrile. The solution was centrifuged and the supernatant collected or analysis.
Chromatography was conducted as follows: • Pumps: Hewlett Packard Model 1100 Binary Systems • Solvent A: Water • Solvent B: Acetonitrile • Gradient: Start 40% B • Raise to 60% B at 20 minutes • Raise to 90% B at 40 minutes • Flow Rate: 1.0 ml/min • Stationary Phase ZORBAX® CS (4.6×150 mm) • Column Temperature: 25 C • Injection volume […]
Sequential detection was performed by UV absorbance using an HP diode array detector followed by ESI-MS […] a Sciex QSTAR®/Pulsar quadrupole-TOF mass spectrometer operating in either the positive and negative ion modes.

Like-named read-outs stand apart in the source and are kept apart here.

As for `CC(C)Cc1ccc(C(C)C(=O)OC(C)C)cc1` (stereo not drawn) [ibuprofen isopropyl ester], in data set [1], the “Efficacy (1 = high, 5 = low)” value was 1. For the same compound, in the data set with skin of minipigs [2], the “Diffusion Rate (1 = high, 5 = low)” value came to 1 and the “Systemic Levels (1 = high, 5 = low)” value worked out at 5.

Turning to `CCOC(=O)C(C)c1cccc(C(=O)c2ccccc2)c1` (stereo not drawn) [ketoprofen ethylester], in the data set with skin of minipigs [3], the “Diffusion Rate (1 = high, 5 = low)” value stood at 3 and the “Systemic Levels (1 = high, 5 = low)” value was 3. Besides, the “Efficacy (1 = high, 5 = low)” value in data set [1] was 3.

Consider `CC(C)OC(=O)C(C)c1cccc(C(=O)c2ccccc2)c1` (stereo not drawn) [ketoprofen isopropyl ester], for which, in data set [1], the “Efficacy (1 = high, 5 = low)” value was 3. Further, in the data set on skin of minipigs [2], the “Diffusion Rate (1 = high, 5 = low)” value stood at 3 and the “Systemic Levels (1 = high, 5 = low)” value was determined as 3.

`CC(C(=O)O)c1cccc(C(=O)c2ccccc2)c1` (stereo not drawn) [ketoprofen, reference compound]: the “Efficacy (1 = high, 5 = low)” value in data set [1] stood at 5. The “Systemic Levels (1 = high, 5 = low)” value in the data set on skin of minipigs [2] is reported as 2.

On to `O=C(O)c1ccccc1O` [salicylic acid], for which, in data set [4], the “effect on rate of prodrug formation” value is listed as “increases the rate of prodrug formation”.

In the case of “ethylisobutylphenyl-propionate [ibuprofen ethylester]”, the “Efficacy (1 = high, 5 = low)” value in data set [1] was found to be 2. Moreover, in the data set on skin of minipigs [2], the “Diffusion Rate (1 = high, 5 = low)” value stood at 2 and the “Systemic Levels (1 = high, 5 = low)” value is on record as 4.

(Values after patent US20070053984A1, “Topical gels compositions” (priority 2005, published 2007).)
